“And” between values parts separate entries of the source, which are not always exact repeats. Equal values may be shown once.

The subject of one assay is microglia. In words: N-AS generation in primary cultured cells (LC-MS/MS). It is filed as cell-based, C57BL/6 mice. The following applies: Ab, replicates. More on the design: dose or concentration left out as unconfirmed. On the procedure:
Reactions were quenched by adding equal volume of cold methanol. A 100 μl aliquot of the reaction mixture was mixed with 30 μl of distilled water containing 5 ng ml^−1 of furosemide (internal standard) for 1 min and vigorously mixed with […] of ethyl acetate for 20 min. After centrifugation at 16,000×g for 10 min, the mixtures were kept for 2 h for freezing aqueous phase. The upper ethyl acetate layer was transferred to a clean tube and evaporated to dryness under a gentle stream of nitrogen. Then, the dried extract was reconstituted in 100 µl of mobile phase and 10 µl aliquot of the solution was injected into an Agilent 6470 Triple Quad LC–MS/MS system (Agilent, Wilmington, DE) coupled with an Agilent 1260 HPLC system. […] Quantification was carried out using multiple reaction monitoring (MRM) at m/z 340.3→263.3 for N-AS and m/z 328.9→284.8 for furosemide (internal standard) in negative ionization mode and collision energy of 20 eV. […]
To confirm the generation and roles of N-AS in neurons, cells from E18 C57BL/6 mice were prepared as previously described. […] Aβ 1–42 (10 μM, 24 h, Invitrogen, 03112) was exposed to neurons and the cells were analyzed for the generation and roles of N-AS. […]

For a further assay, the system named is APP/PS1 mice. Briefly: tau hyperphosphorylation (AT8) quantification (Fig 6g). It is filed as in vivo, mouse. On the procedure: Thioflavin S (Sigma-Aldrich) staining was carried out according to previously described procedures. We used 6E10 (mouse, 1:100, Signet, SIG39300), anti-20G10 (mouse, 1:1000, provided by D. R. Howlett, GlaxoSmithKline, Harlow, Essex, UK) for Aβ42, anti-G30 (rabbit, 1:1000, provided by D. R. Howlett) for Aβ40, SMA (mouse, 1:400, Sigma-Aldrich, A2547), AT8 (mouse, 1:500, Thermo Fisher Scientific, MN1020), Caspase-3 (mouse, 1:200, Novus Biologicals, NB100-56708), ac-S565 (rabbit, 1:100), COX2 (mouse, 1:250, Thermo Fisher Scientific, 35-8200), Iba1 (rabbit, 1:500, Wako, 019-19941 and goat, Abcam, ab5076), NeuN (mouse, 1:500, Millipore, MAB177), GFAP (rabbit, 1:500, Dako, N1506 and chicken, 1:500, Abcam, ab4674), and Lamp1 (mouse, 1:200, Abcam, ab24170). The sections were analyzed with a laser-scanning confocal microscope (FV3000; Olympus) or with a BX51 microscope (Olympus). MetaMorph software (Molecular Devices) was used to quantification. Three-dimensional reconstruction of microglia was recorded and analyzed using IMARIS software (Bitplane)[11]. For the analysis of age-dependent microglial COX2^+ CX3CR1^+ cells in WT and APP/PS1 mice, COX2 (rabbit, 1:100, Abcam, ab15191) and CX3CR1 (mouse, 1:100, BioLegend, 149008) antibody were used and the images were acquired on Alexa 488 and APC Channel with performed using Operetta CLS and Analysis Software 4.5 (Perkin-Elmer). […]

In a further assay the test system is tumors. Further details: method as in PMID 27043542, PMID 24566153. The conditions noted are these: cited from earlier work.

As for “Ab: Aβ 1–42 (Invitrogen, 03112) used to induce an AD environment in cells”, the “N-AS quantification (Fig 3a)” value in the assay with microglia was 1.15 and 1.365 and 1.237 and 1.2575 and 1.301 and 1.247.
For `CCCCCCCCCCCCC/C=C/[C@@H](O)[C@H](CO)NC(C)=O` [N-AS, N-((2S,3R,E)-1,3-Dihydroxyoctadec-4-en-2-yl)acetamide], the “tau hyperphosphorylation (AT8) quantification (Figure 6g)” value in the assay on APP/PS1 mice (APP/PS1 + N-AS, individual animals) was 0.1647 and 0.1634 and 0.2394 and 0.275 and 0.2281 and 0.1841. Besides, in the assay with APP/PS1 mice (APP/PS1 treated with N-AS), the tau hyperphosphorylation entry is given as “reduced”. The apoptosis of tumors result with tumors is reported as “induce apoptosis of tumors”.
